{"source": "patent US20190256929A1", "about": "“PHARMACODYNAMIC BIOMARKERS FOR PERSONALIZED CANCER CARE USING EPIGENETIC MODIFYING AGENTS” (ORYZON GENOMICS, S.A., priority 2016, published 2019)", "key": {"[1]": {"test_system": "patient derived xenograft (PDX) small cell lung cancer models, ex vivo cultures", "experiment": "qRT-PCR of PD markers Notch1 and ASCL1 in ex vivo cultures of SCLC patient derived xenograft (PDX) models", "assay_type": "cell-based, human", "details": "1 nM, 120 hours", "description": "To confirm the results obtained for the panel for small cell lung cancer cell lines, changes in PD markers Notch1 and ASCL1 were evaluated in a panel of patient derived xenograft (PDX) small cell lung cancer models. The initiation and characterization of PDX models LX48, LX108, LX110, LX33 have been described previously (Hann, C. L., et al. 2008, Cancer Research. 68, 2321-2328; Poirier et al. (2013). J. Natl. Cancer Inst. 105, 1059-1065; Leong et al. PLoS One. 2014; 9:e106862). PDX models, FHSC04 and FHSC14 were generated from blood samples obtained from patients with extensive-stage SCLC, following the methodology described by the Dive lab (Hodgkinson et al. 2014 Nat Med August 20(8), 897-903). Ex vivo cultures were treated with 1 nM (trans)-N1-((1R,2S)-2-Phenylcyclopropyl)cyclohexane-1,4-diamine in 96 well plates (10,000 cells/well) for 120 hours. RNA was extracted in TRIzol (Invitrogen) and isolated according to the manufacturer's protocol. cDNA was generated using the iScript synthesis kit (Bio-Rad) according to the manufacturer's protocol. qPCR experiments were run on a Biorad qPCR instrument (CFX384). Data were normalized to GAPDH. FIG. 12 contains the results of the qRT-PCR using the following primers."}, "SCLC 510A xenografts": {"test_system": "SCLC 510A xenografts", "experiment": "RNA-seq PD gene change in H510A SCLC xenograft mouse model", "assay_type": "in vivo, mice", "details": "for ASCL1 Log2FC / GRP Log2FC / NOTCH1 Log2FC: vs vehicle", "description": "Female athymic nude mice, approximately 7-8-week old animals, were injected with 5 million H510A cells per 50 μL PBS and 50 μL Matrigel (BD Bioscience) into the right flank of each animal. After tumor growth reached 200-300 mm3, animals were distributed in three homogeneous groups with similar mean tumor volume and SD. Animals were treated with vehicle, 20 μg/Kg and 40 μg/Kg of (trans)-N1-((1R,2S)-2-phenylcyclopropyl)cyclohexane-1,4-diamine for 3 weeks according to the 5 days on/2 days off schedule.\nMice were sacrificed at day 35 at 1, 6 and 24 hours post last injection. Blood was extracted in Microvette® (Sarstedt) tubes, centrifuged on a bench-top centrifuge at 2000 rpm for 15 min at 4 C. Supernatant was stored at −80° C. Tumors were removed and divided in 3 parts: ⅓ was immersed in RNA-Later and snap frozen for subsequent analysis. Frozen material was stored at −80° C. before shipment.\nWhole transcriptomic RNA sequencing procedure is identical to that as described in Example 1. Raw RNASeq reads were aligned to the mouse and the human transcriptome using GSNAP and were then analyzed. Reads mapped to both organisms were filtered out and only reads that were uniquely aligned to human or mouse were used to profile the respective genes. The log 2 fold change of three candidate PD markers between (trans)-N1-((1R,2S)-2-phenylcyclopropyl)cyclohexane-1,4-diamine treated and vehicle treated samples were calculated using DESeq2 package (Love et al.)."}, "[2]": {"details": "20 μg/kg, 1 h post last injection"}, "[3]": {"details": "20 μg/kg, 6 h post last injection"}, "[4]": {"details": "20 μg/kg, 24 h post last injection"}, "[5]": {"details": "40 μg/kg, 1 h post last injection"}, "[6]": {"details": "40 μg/kg, 6 h post last injection"}, "[7]": {"details": "40 μg/kg, 24 h post last injection"}}, "data": [{"smiles": "N[C@H]1CC[C@H](N[C@@H]2C[C@H]2c2ccccc2)CC1", "note": "[RG6016, (trans)-N1-((1R,2S)-2-phenylcyclopropyl)cyclohexane-1,4-diamine]", "values": [{"measurement": "Regulation of ASCL1 (FIG. 12)", "setting": "[1]", "result": "down"}, {"measurement": "Regulation of NOTCH1 (FIG. 12)", "setting": "[1]", "result": "up"}, {"measurement": "ASCL1 Log2FC", "setting": "SCLC 510A xenografts; [2]", "result": "−0.525"}, {"measurement": "GRP Log2FC", "setting": "SCLC 510A xenografts; [2]", "result": "−1.607"}, {"measurement": "NOTCH1 Log2FC", "setting": "SCLC 510A xenografts; [2]", "result": 1.947}, {"measurement": "ASCL1 Log2FC", "setting": "SCLC 510A xenografts; [3]", "result": "−0.545"}, {"measurement": "GRP Log2FC", "setting": "SCLC 510A xenografts; [3]", "result": "−0.794"}, {"measurement": "NOTCH1 Log2FC", "setting": "SCLC 510A xenografts; [3]", "result": 1.388}, {"measurement": "ASCL1 Log2FC", "setting": "SCLC 510A xenografts; [4]", "result": "−0.472"}, {"measurement": "GRP Log2FC", "setting": "SCLC 510A xenografts; [4]", "result": "−1.205"}, {"measurement": "NOTCH1 Log2FC", "setting": "SCLC 510A xenografts; [4]", "result": 1.679}, {"measurement": "ASCL1 Log2FC", "setting": "SCLC 510A xenografts; [5]", "result": "−0.783"}, {"measurement": "GRP Log2FC", "setting": "SCLC 510A xenografts; [5]", "result": "−1.75"}, {"measurement": "NOTCH1 Log2FC", "setting": "SCLC 510A xenografts; [5]", "result": 2.727}, {"measurement": "ASCL1 Log2FC", "setting": "SCLC 510A xenografts; [6]", "result": "−0.825"}, {"measurement": "GRP Log2FC", "setting": "SCLC 510A xenografts; [6]", "result": "−1.421"}, {"measurement": "NOTCH1 Log2FC", "setting": "SCLC 510A xenografts; [6]", "result": 2.321}, {"measurement": "ASCL1 Log2FC", "setting": "SCLC 510A xenografts; [7]", "result": "−1.286"}, {"measurement": "GRP Log2FC", "setting": "SCLC 510A xenografts; [7]", "result": "−2.742"}, {"measurement": "NOTCH1 Log2FC", "setting": "SCLC 510A xenografts; [7]", "result": 3.423}, {"measurement": "ASCL1 transcript down regulation (FIG. 9)", "setting": "SCLC 510A xenografts; SCLC 510A xenografts", "result": "dose and time dependent"}, {"measurement": "GRP transcript down regulation (FIG. 10)", "setting": "SCLC 510A xenografts; SCLC 510A xenografts", "result": "dose and time dependent"}, {"measurement": "NOTCH1 transcript up regulation (FIG. 11)", "setting": "SCLC 510A xenografts; SCLC 510A xenografts", "result": "dose and time dependent"}]}]}
